Experimental data published in patent US20230078764A1 (Yumanity Therapeutics, Inc., priority 2019, published 2023).
Read-outs that look alike come from different tables or passages of the source.

What was measured:
human SCD1 = molecular target: T1, human SCD1 (Homo sapiens, UniProt O00767); experiment: Growth inhibition of yeast strain expressing human SCD1 as sole desaturase (OLE1 deleted), OD600 readout; type: cell-based
T1 construct: expressed in transfected cells; host or cells: yeast strain with OLE1 deleted, plasmid-borne human SCD1 (selected in SD-Ura)
T1 sequence (O00767 1-359): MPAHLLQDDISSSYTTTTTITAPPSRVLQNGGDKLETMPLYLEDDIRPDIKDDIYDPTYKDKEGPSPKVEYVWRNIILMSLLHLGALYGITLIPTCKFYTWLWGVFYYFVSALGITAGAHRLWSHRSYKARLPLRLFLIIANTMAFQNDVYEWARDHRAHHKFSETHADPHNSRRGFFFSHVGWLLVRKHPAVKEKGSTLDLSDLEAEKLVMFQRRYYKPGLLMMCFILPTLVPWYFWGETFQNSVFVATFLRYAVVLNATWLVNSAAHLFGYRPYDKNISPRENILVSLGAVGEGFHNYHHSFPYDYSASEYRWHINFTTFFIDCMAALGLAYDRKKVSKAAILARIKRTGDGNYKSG

human SCD5 = molecular target: T2, human SCD5 (Homo sapiens, UniProt Q86SK9); experiment: Growth inhibition of yeast strain expressing human SCD5 as sole desaturase (OLE1 deleted), OD600 readout; type: cell-based
T2 construct: expressed in transfected cells; host or cells: yeast strain with OLE1 deleted, plasmid-borne human SCD5 (selected in SD-Ura)
T2 sequence (Q86SK9 1-330): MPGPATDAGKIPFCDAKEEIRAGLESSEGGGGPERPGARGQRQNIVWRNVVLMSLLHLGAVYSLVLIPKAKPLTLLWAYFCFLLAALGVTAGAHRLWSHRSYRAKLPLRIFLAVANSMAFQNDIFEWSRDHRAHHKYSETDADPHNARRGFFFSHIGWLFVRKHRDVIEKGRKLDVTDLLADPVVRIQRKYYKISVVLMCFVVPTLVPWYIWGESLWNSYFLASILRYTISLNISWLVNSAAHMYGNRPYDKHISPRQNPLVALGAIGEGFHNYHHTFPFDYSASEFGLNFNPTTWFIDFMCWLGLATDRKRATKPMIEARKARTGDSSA

[1] = yeast strain expressing human SCD1 as sole desaturase, growth (OD600) after 40 h at 30° C., read-out: SCD1 IC50
[2] = yeast strain expressing human SCD5 as sole desaturase, growth (OD600) after 40 h at 30° C., read-out: SCD5 IC50

Structure (SMILES) | IC50 (human SCD1; [1]) | IC50 (human SCD5; [2]) | IC50 (human SCD1; SCD1 IC50) | IC50 (human SCD5; SCD5 IC50)
CN1N=C(C(=O)Nc2ncc(Cc3cc(F)ccc3F)s2)CCC1=O [Compound 235, N-(5-(2,5-difluorobenzyl)thiazol-2-yl)-1-methyl-6-oxo-1,4,5,6-tetrahydropyridazine-3-carboxamide] | 1880 nM | 1770 nM |  | 
N#Cc1cc(F)cc(Cc2ccc(NC(=O)c3ccc(C#N)nc3)nc2)c1 [Compound 535] | > 45000 nM | 480 nM |  | 
Cn1nc(C(=O)Nc2ccc(Cc3cc(C#N)ccc3F)cn2)ccc1=O [Compound 641] | > 45000 nM | 540 nM |  | 
Cn1nc(C(=O)Nc2ccc(COc3ccc(F)cc3)cn2)ccc1=O [Compound 599] | > 45000 nM | 940 nM |  | 
CCn1nc(C(=O)Nc2ccc(Cc3cccc(Cl)c3)nn2)ccc1=O [Compound 185, N-(6-(3-chlorobenzyl)pyridazin-3-yl)-1-ethyl-6-oxo-1,6-dihydropyridazine-3-carboxamide] | > 45000 nM | 8590 nM |  | 
Cn1cc(C(=O)Nc2ccc(Oc3cc(F)cc(F)c3)cn2)ccc1=O [Compound 588] | 6200 nM | 530 nM |  | 
N#Cc1cnc(C(=O)Nc2ccc(Cc3ccc(F)c(C#N)c3)cn2)cn1 [Compound 654] | 1900 nM | 56 nM |  | 
Cn1cc(C(=O)Nc2ccc(Cc3ccc(F)c(F)c3)cn2)ccc1=O [Compound 66, N-(5-(3,4-difluorobenzyl)pyridin-2-yl)-1-methyl-6-oxo-1,6-dihydropyridine-3-carboxamide] |  |  | 1440 nM | 10 nM
Cn1cc(C(=O)Nc2ccc(Cc3cc(F)cc(F)c3)cn2)n(C)c1=O [Compound 644] | 42 nM | 10 nM |  | 
O=C(Nc1ccc(Cc2cccc(F)c2)nn1)c1ccc2nccn2n1 [Compound 238] | 4060 nM | 3960 nM |  | 
CN1N=C(C(=O)Nc2ncc(Cc3cccc(F)c3)s2)CCC1=O [Compound 220] | 660 nM | 520 nM |  | 
Cn1cc(NCc2ccc(Cc3cccc(F)c3)cn2)ccc1=O [Compound 352] | > 45000 nM | 35500 nM |  | 
Cc1cc(NC(=O)C2=NN(C)C(=O)CC2)ncc1Cc1cccc(Cl)c1 [Compound 123, N-(5-(3-chlorobenzyl)-4-methylpyridin-2-yl)-1-methyl-6-oxo-1,4,5,6-tetrahydropyridazine-3-carboxamide] | > 45000 nM | 8940 nM |  | 
CN1N=C(C(=O)Nc2ncc(COc3cccc(Cl)c3)s2)CCC1=O [Compound 385] | > 45000 nM | > 45000 nM |  | 
Cc1nccc(C(=O)Nc2ccc(Cc3cc(F)cc(C#N)c3)cn2)n1 [Compound 134, N-(5-(3-cyano-5-fluorobenzyl)pyridin-2-yl)-2-methylpyrimidine-4-carboxamide] | 90 nM | 10 nM |  | 
CN1N=C(C(=O)Nc2ccc(Cc3cccc(Br)c3)nn2)CCC1=O [Compound 191, N-(6-(3-bromobenzyl)pyridazin-3-yl)-1-methyl-6-oxo-1,4,5,6-tetrahydropyridazine-3-carboxamide] | > 45000 nM | 2680 nM |  | 
Cn1nc(C(=O)Nc2nc(C(N)=O)c(Cc3cccc(F)c3)s2)ccc1=O [Compound 430] | > 45000 nM | > 45000 nM |  | 
COc1cc(Cc2ccc(NC(=O)c3ccc(=O)n(C)c3)nc2)ccc1F [Compound 54, N-(5-(4-fluoro-3-methoxybenzyl)pyridin-2-yl)-1-methyl-6-oxo-1,6-dihydropyridine-3-carboxamide] |  |  | 12000 nM | 580 nM
Cn1nc(C(=O)Nc2nnc(Cc3ccc(F)c(Cl)c3)s2)ccc1=O [Compound 347] | 680 nM | 710 nM |  | 
CC(=O)c1ccc(C(=O)Nc2ccc(Cc3cccc(Cl)c3)cn2)nn1 [Compound 517] | 180 nM | 140 nM |  | 
CN1N=C(C(=O)Nc2ccc(COc3ccc(F)c(Cl)c3)cn2)CCC1=O [Compound 265] | 23300 nM | 350 nM |  | 
O=C(Nc1ccc(Cc2cc(F)cc(Cl)c2)cn1)c1ccc(=O)n(C2CC2)n1 [Compound 74, N-(5-(3-chloro-5-fluorobenzyl)pyridin-2-yl)-1-cyclopropyl-6-oxo-1,6-dihydropyridazine-3-carboxamide] | 250 nM | 10 nM |  | 
Cc1cc(C(=O)Nc2ccc(Cc3cc(F)cc(F)c3)cn2)nn(C)c1=O [Compound 524] | > 45000 nM | 29 nM |  | 
CN1N=C(C(=O)Nc2ccc(Cc3ccc(F)c(C#N)c3)cn2)CCC1=O [Compound 10, N-(5-(3-cyano-4-fluorobenzyl)pyridin-2-yl)-1-methyl-6-oxo-1,4,5,6-tetrahydropyridazine-3-carboxamide] | 9540 nM | 500 nM |  | 

Structure (SMILES) | IC50 (human SCD1; [1]) | IC50 (human SCD5; [2]) | IC50 (human SCD1; SCD1 IC50) | IC50 (human SCD5; SCD5 IC50)
Cn1cc(NC(=O)c2ccc(Cc3cccc(Cl)c3)nn2)ccc1=O [Compound 189, 6-(3-chlorobenzyl)-N-(1-methyl-6-oxo-1,6-dihydropyridin-3-yl)pyridazine-3-carboxamide] | > 45000 nM | 5070 nM |  | 
Cn1cc(C(=O)Nc2ccc(Cc3cccc(F)c3)cc2)ccc1=O [Compound 5, N-(4-(3-fluorobenzyl)phenyl)-1-methyl-6-oxo-1,6-dihydropyridine-3-carboxamide] | 3340 nM | 1870 nM |  | 
Cn1cc(C(=O)Nc2ccc(Cc3cccc(F)c3)cn2)cn1 [Compound 356] | 120 nM | 40 nM |  | 
CCc1cc(C(=O)Nc2ccc(Cc3cccc(F)c3)cn2)nn(C)c1=O [Compound 531] | 1300 nM | 340 nM |  | 
CN1N=C(C(=O)Nc2ccc(CC3CCCCC3)cn2)CCC1=O [Compound 370] | > 45000 nM | 6650 nM |  | 
N#Cc1cc(C(=O)Nc2ccc(Cc3cc(F)cc(F)c3)cn2)cnn1 [Compound 662] | 300 nM | 180 nM |  | 
Cn1nc(CO)cc1C(=O)Nc1ccc(Cc2cccc(F)c2)cn1 [Compound 540] | 60 nM | 10 nM |  | 
O=C(Nc1ccc(Cc2cccc(Cl)c2)cn1)c1ccc(CO)cn1 [Compound 137, N-(5-(3-chlorobenzyl)pyridin-2-yl)-5-(hydroxymethyl)picolinamide] |  |  | 10 nM | 10 nM
Cn1cc(NC(=O)c2ccc(Cc3cc(F)cc(F)c3)cn2)ccc1=O [Compound 311] | 1020 nM | 10 nM |  | 
Cn1cc(C(=O)Nc2ccc(Oc3cccc(Cl)c3)cn2)ccc1=O [Compound 161, N-[5-(3-chlorophenoxy)pyridin-2-yl]-1-methyl-6-oxo-1,6-dihydropyridine-3-carboxamide] | > 45000 nM | 1640 nM |  | 
COc1cccc(Cc2ccc(NC(=O)C3=NN(C)C(=O)CC3)nc2)c1 [Example 30, N-(5-(3-methoxybenzyl)pyridin-2-yl)-1-methyl-6-oxo-1,4,5,6-tetrahydropyridazine-3-carboxamide] | > 45000 nM | 3530 nM |  | 
CN1N=C(NC(=O)c2ccc(Cc3cccc(F)c3)cn2)CCC1=O [Compound 90, 5-(3-Fluorobenzyl)-N-(1-methyl-6-oxo-1,4,5,6-tetrahydropyridazin-3-yl)picolinamide] | 18000 nM | 620 nM |  | 
CN1N=C(C(=O)Nc2nc(Cc3cccc(F)c3)cs2)CCC1=O [Compound 406] | > 45000 nM | > 45000 nM |  | 
Cc1cc(C(=O)Nc2ccc(Cc3ccc(F)c(F)c3)cn2)cn(C)c1=O [Compound 679] | 570 nM | 10 nM |  | 
Cn1nc(C(=O)Nc2ccc(Cc3cc(F)cc(C#N)c3)cn2)ccc1=O [Example 42, N-(5-(3-cyano-5-fluorobenzyl)pyridin-2-yl)-1-methyl-6-oxo-1,6-dihydropyridazine-3-carboxamide] | 2410 nM | 80 nM |  | 
O=C(Nc1ccc(Cc2cccc(Cl)c2)cn1)N1CC2(COC2)C1 [Compound 250] | > 45000 nM | 9750 nM |  | 
Cn1cc(C(=O)Nc2ccc(Cc3cccc(Cl)c3)nn2)ccc1=O [Compound 183, N-(6-(3-chlorobenzyl)pyridazin-3-yl)-1-methyl-6-oxo-1,6-dihydropyridine-3-carboxamide] | 10700 nM | 1410 nM |  | 
CO[C@H]1C[C@@H](C(=O)Nc2ccc(Cc3cccc(F)c3)cn2)N(C)C1 [Compound 438] | > 45000 nM | > 45000 nM |  | 
Cn1nc(C(=O)NC2CCC(Oc3cccc(Cl)c3)CC2)ccc1=O (stereo not shown) [Compound 369] | > 45000 nM | 14000 nM |  | 
N#Cc1cc(F)cc(Cc2ccc(NC(=O)c3ccnnc3)nc2)c1 [Compound 656] | 220 nM | 110 nM |  | 
Cn1c(C(=O)Nc2ccc(Cc3cc(F)cc(F)c3)cn2)coc1=O [Compound 509] | 430 nM | 120 nM |  | 
N#Cc1ccc(C(=O)Nc2ccc(Cc3cc(F)cc(C#N)c3)cn2)nc1 [Compound 536] | 1000 nM | 110 nM |  | 
Cn1nc(C(=O)Nc2ccc(Cc3cccc(C(F)F)c3)cn2)ccc1=O [Compound 561] | 6700 nM | 200 nM |  | 
